# Data taken from US12331035B2, “Bicyclic compound and use thereof” (SK BIOPHARMACEUTICALS CO., LTD., priority 2019, dated 2025).
# pIC50: −log10 of the molar value. Where a name gives a salt, the structure may show the parent alone.
# Target: T1, PRMT5-MEP50 enzyme complex (Homo sapiens, UniProt O14744)
# T1 construct: purchased BPS Bioscience (USA) 51045
# Experiment: In vitro PRMT5 enzyme activity assay (methylation of histone H4 arginine H4R3, ELISA absorbance at 450 nm)
# Type: biochemical
# Conditions: S-adenosylmethionine, histone H4 peptide, 2 hours at room temperature, 8 points 10 μM to 0.128 nM
# Method in brief: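 Human PRMT5-MEP50 (5 μg/mL working stock) with 2 μM SAM stock on histone H4 (1-20) peptide-coated plates, compound 8-point 1:5 series from 10 μM, 2 h at room temperature. H4R3 methylation detected by antibody/HRP ELISA, absorbance 450 nm; IC50 calculated.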
# T1 sequence (O14744 2-637 limits assumed): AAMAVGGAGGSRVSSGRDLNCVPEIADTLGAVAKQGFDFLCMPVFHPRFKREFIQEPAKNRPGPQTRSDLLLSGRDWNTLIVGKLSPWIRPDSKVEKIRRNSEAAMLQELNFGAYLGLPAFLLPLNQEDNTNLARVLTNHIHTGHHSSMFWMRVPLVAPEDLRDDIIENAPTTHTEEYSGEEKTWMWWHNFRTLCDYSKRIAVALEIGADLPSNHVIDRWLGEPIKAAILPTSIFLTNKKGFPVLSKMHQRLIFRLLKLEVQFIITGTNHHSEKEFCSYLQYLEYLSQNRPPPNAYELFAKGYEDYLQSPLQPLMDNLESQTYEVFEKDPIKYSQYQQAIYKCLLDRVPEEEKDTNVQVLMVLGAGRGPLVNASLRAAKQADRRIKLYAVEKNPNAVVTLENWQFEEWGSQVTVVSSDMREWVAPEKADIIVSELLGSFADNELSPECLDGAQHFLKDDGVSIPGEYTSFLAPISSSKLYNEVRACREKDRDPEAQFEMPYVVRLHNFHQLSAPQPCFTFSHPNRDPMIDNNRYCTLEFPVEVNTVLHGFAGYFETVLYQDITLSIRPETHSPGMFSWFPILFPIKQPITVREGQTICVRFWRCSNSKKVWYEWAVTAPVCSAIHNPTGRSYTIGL
# T1 sequence (Q9BQA1 2-342 partner limits assumed): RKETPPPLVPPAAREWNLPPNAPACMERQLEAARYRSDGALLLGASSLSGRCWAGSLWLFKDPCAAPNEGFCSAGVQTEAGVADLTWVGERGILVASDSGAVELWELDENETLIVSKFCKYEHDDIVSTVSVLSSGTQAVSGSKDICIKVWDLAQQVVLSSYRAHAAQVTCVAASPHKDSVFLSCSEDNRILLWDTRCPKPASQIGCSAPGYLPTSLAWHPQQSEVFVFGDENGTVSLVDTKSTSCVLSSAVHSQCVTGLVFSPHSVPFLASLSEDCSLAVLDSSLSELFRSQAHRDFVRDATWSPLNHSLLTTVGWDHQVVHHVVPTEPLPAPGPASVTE
row,pIC50,Compound
1,7.00 to 9.00,"O=C1c2ccc(N3CCOCC3)cc2CCN1C[C@H](O)CN1CCc2ccccc2C1 [Example 4, 2-[(2R)-3-(3,4-dihydro-1H-isoquinolin-2-yl)-2-hydroxy-propyl]-6-morpholino-3,4-dihydroisoquinoline-1-one]"
2,6.00 to 7.00,"C[C@@H]1CN(c2ccc3c(c2)CCN(C[C@H](O)CN2CCc4ccccc4C2)C3=O)C[C@H](C)O1 [Example 14, 2-[(2R)-3-(3,4-dihydro-1H-isoquinolin-2-yl)-2-hydroxy-propyl]-6-[(2R,6S)-2,6-dimethylmorpholin-4-yl]-3,4-dihydroisoquinolin-1-one]"
3,6.00 to 7.00,"CN(C)CC1CCN(c2ccc3c(c2)CCN(C[C@H](O)CN2CCc4ccccc4C2)C3=O)CC1 [Example 117, 2-[(2R)-3-(3,4-dihydro-1H-isoquinolin-2-yl)-2-hydroxy-propyl]-6-[4-[(dimethylamino)methyl]-1-piperidyl]-3,4-dihydroisoquinolin-1-one]"
4,6.00 to 7.00,"CCN(CC)C1CCN(c2ccc3c(c2)CCN(C[C@H](O)CN2CCc4ccccc4C2)C3=O)CC1 [Example 118, 6-[4-(diethylamino)-1-piperidyl]-2-[(2R)-3-(3,4-dihydro-1H-isoquinolin-2-yl)-2-hydroxy-propyl]-3,4-dihydroisoquinolin-1-one]"
5,6.00 to 7.00,"CN(C)CCOC1CCN(c2ccc3c(c2)CCN(C[C@H](O)CN2CCc4ccccc4C2)C3=O)CC1 [Example 119, 2-[(2R)-3-(3,4-dihydro-1H-isoquinolin-2-yl)-2-hydroxy-propyl]-6-[4-[2-(dimethylamino)ethoxy]-1-piperidyl]-3,4-dihydroisoquinolin-1-one]"
6,7.00 to 9.00,"COCCN(C)C1CCN(c2ccc3c(c2)CCN(C[C@H](O)CN2CCc4ccccc4C2)C3=O)CC1 [Example 120, 2-[(2R)-3-(3,4-dihydro-1H-isoquinolin-2-yl)-2-hydroxy-propyl]-6-[4-[2-methoxyethyl(methyl)amino]-1-piperidyl]-3,4-dihydroisoquinolin-1-one]"
7,6.00 to 7.00,"O=C1c2ccc(N3CCN(C4COC4)CC3)cc2CCN1C[C@H](O)CN1CCc2ccccc2C1 [Example 121, 2-[(2R)-3-(3,4-dihydro-1H-isoquinolin-2-yl)-2-hydroxy-propyl]-6-[4-(oxetan-3-yl)piperazin-1-yl]-3,4-dihydroisoquinolin-1-one]"
8,6.00 to 7.00,"O=C1c2ccc(N3CCN(C4CCOCC4)CC3)cc2CCN1C[C@H](O)CN1CCc2ccccc2C1 [Example 122, 2-[(2R)-3-(3,4-dihydro-1H-isoquinolin-2-yl)-2-hydroxy-propyl]-6-(4-tetrahydropyran-4-ylpiperazin-1-yl)-3,4-dihydroisoquinolin-1-one]"
9,6.00 to 7.00,"CCN(CC)C1CCN(c2ccc3c(c2)C(C)(C)CN(C[C@H](O)CN2CCc4ccccc4C2)C3=O)CC1 [Example 123, 6-[4-(diethylamino)-1-piperidyl]-2-[(2R)-3-(3,4-dihydro-1H-isoquinolin-2-yl)-2-hydroxy-propyl]-4,4-dimethyl-3H-isoquinolin-1-one]"
10,7.00 to 9.00,"CC1(C)CN(C[C@H](O)CN2CCc3ccccc3C2)C(=O)c2ccc(N3CCC(N4CCCC4)CC3)cc21 [Example 124, 2-[(2R)-3-(3,4-dihydro-1H-isoquinolin-2-yl)-2-hydroxy-propyl]-4,4-dimethyl-6-(4-pyrrolidin-1-yl-1-piperidyl)-3H-isoquinolin-1-one]"
11,6.00 to 7.00,"CC1(C)CN(C[C@H](O)CN2CCc3ccccc3C2)C(=O)c2ccc(N3CCN(C=O)CC3)cc21 [Example 125, 4-[2-[(2R)-3-(3,4-dihydro-1H-isoquinolin-2-yl)-2-hydroxy-propyl]-4,4-dimethyl-1-oxo-3H-isoquinolin-6-yl]piperazine-1-carbaldehyde]"
12,7.00 to 9.00,"CN(C)C1CCN(c2ccc3c(c2)C(C)(C)CN(C[C@H](O)CN2CCc4ccccc4C2)C3=O)CC1 [Example 126, 2-[(2R)-3-(3,4-dihydro-1H-isoquinolin-2-yl)-2-hydroxy-propyl]-6-[4-(dimethylamino)-1-piperidyl]-4,4-dimethyl-3H-isoquinolin-1-one; dihydrochloride]"
13,7.00 to 9.00,"O=C1c2ccc(N3CCN(C4CCOC4)CC3)cc2CCN1C[C@H](O)CN1CCc2ccccc2C1 (stereo partly drawn) [Example 127, 2-[(2R)-3-(3,4-dihydro-1H-isoquinolin-2-yl)-2-hydroxy-propyl]-6-(4-tetrahydrofuran-3-ylpiperazin-1-yl)-3,4-dihydroisoquinolin-1-one]"
14,6.00 to 7.00,"CC(=O)N1CCN(c2cc(F)c3c(c2)CCN(C[C@H](O)CN2CCc4ccccc4C2)C3=O)CC1 [Example 128, 6-(4-acetylpiperazin-1-yl)-2-[(2R)-3-(3,4-dihydro-1H-isoquinolin-2-yl)-2-hydroxy-propyl]-8-fluoro-3,4-dihydroisoquinolin-1-one]"
15,6.00 to 7.00,"CC(=O)N1CCN(c2ccc3c(c2)CCN(C(C)C(O)CN2CCc4ccccc4C2)C3=O)CC1 (stereo not shown) [Example 129, 6-(4-acetylpiperazin-1-yl)-2-[3-(3,4-dihydro-1H-isoquinolin-2-yl)-2-hydroxy-1-methyl-propyl]-3,4-dihydroisoquinolin-1-one]"
16,5.00 to 6.00,"CC1(C)CN(C[C@H](O)CN2CCc3ccccc3C2)C(=O)c2ccc(N3CCN(C=O)CC3)cc21 [Example 130, 4-[2-[(2R)-3-(3,4-dihydro-1H-isoquinolin-2-yl)-2-hydroxy-propyl]-4,4-dimethyl-1-oxo-3H-isoquinolin-6-yl]piperazine-1-carbaldehyde; hydrochloride]"
17,7.00 to 9.00,"CCN1CCC(Oc2ccc3c(c2)C(C)(C)CN(C[C@H](O)CN2CCc4ccccc4C2)C3=O)CC1 [Example 131, 2-[(2R)-3-(3,4-dihydro-1H-isoquinolin-2-yl)-2-hydroxy-propyl]-6-[(1-ethyl-4-piperidyl)oxy]-4,4-dimethyl-3H-isoquinolin-1-one]"
18,5.00 to 6.00,"O=C1c2ccc(N3CCOCC3)cc2C(F)(F)CN1C[C@H](O)CN1CCc2ccccc2C1 [Example 132, 2-[(2R)-3-(3,4-dihydro-1H-isoquinolin-2-yl)-2-hydroxy-propyl]-4,4-difluoro-6-morpholino-3H-isoquinolin-1-one]"
19,7.00 to 9.00,"CN1CCC(Oc2ccc3c(c2)CCN(C[C@H](O)CN2CCc4ccccc4C2)C3=O)C1 (stereo partly drawn) [Example 133, 2-[(2R)-3-(3,4-dihydro-1H-isoquinolin-2-yl)-2-hydroxy-propyl]-6-(1-methylpyrrolidin-3-yl)oxy-3,4-dihydroisoquinolin-1-one]"
20,6.00 to 7.00,"CCN1CCC(Oc2ccc3c(c2)CCN(C[C@H](O)CN2CCc4ccccc4C2)C3=O)C1 (stereo partly drawn) [Example 134, 2-[(2R)-3-(3,4-dihydro-1H-isoquinolin-2-yl)-2-hydroxy-propyl]-6-(1-ethylpyrrolidin-3-yl)oxy-3,4-dihydroisoquinolin-1-one]"
21,7.00 to 9.00,"O=C1c2ccc(OC3CCN(C4COC4)CC3)cc2CCN1C[C@H](O)CN1CCc2ccccc2C1 [Example 136, 2-[(2R)-3-(3,4-dihydro-1H-isoquinolin-2-yl)-2-hydroxy-propyl]-6-[[1-(oxetan-3-yl)-4-piperidyl]oxy]-3,4-dihydroisoquinolin-1-one]"
22,6.00 to 7.00,"O=C1c2ccc(C#CCO)cc2CCN1C[C@H](O)CN1CCc2ccccc2C1 [Example 137, 2-[(2R)-3-(3,4-dihydro-1H-isoquinolin-2-yl)-2-hydroxypropyl]-6-(3-hydroxyprop-1-ynyl)-3,4-dihydroisoquinolin-1-one]"
23,6.00 to 7.00,"O=C1c2ccc(C#Cc3ccncc3)cc2CCN1C[C@H](O)CN1CCc2ccccc2C1 [Example 138, 2-[(2R)-3-(3,4-dihydro-1H-isoquinolin-2-yl)-2-hydroxypropyl]-6-[2-(4-pyridyl)ethynyl]-3,4-dihydroisoquinolin-1-one]"
24,7.00 to 9.00,"CN1CCCC(Oc2ccc3c(c2)CCN(C[C@H](O)CN2CCc4ccccc4C2)C3=O)C1 (stereo partly drawn) [Example 139, 2-[(2R)-3-(3,4-dihydro-1H-isoquinolin-2-yl)-2-hydroxypropyl]-6-[(1-methyl-3-piperidyl)oxy]-3,4-dihydroisoquinolin-1-one]"
25,6.00 to 7.00,"O=C1c2ccc(OC3CCCN(CCF)C3)cc2CCN1C[C@H](O)CN1CCc2ccccc2C1 (stereo partly drawn) [Example 140, 2-[(2R)-3-(3,4-dihydro-1H-isoquinolin-2-yl)-2-hydroxypropyl]-6-[[1-(2-fluoroethyl)-3-piperidyl]oxy]-3,4-dihydroisoquinolin-1-one]"
26,6.00 to 7.00,"CN(C)CC#Cc1ccc2c(c1)CCN(C[C@H](O)CN1CCc3ccccc3C1)C2=O [Example 141, 2-[(2R)-3-(3,4-dihydro-1H-isoquinolin-2-yl)-2-hydroxypropyl]-6-[3-(dimethylamino)prop-1-ynyl]-3,4-dihydroisoquinolin-1-one]"

# System: SDMA levels in the tumor
# Experiment: Test for in vivo target inhibitory activity (SDMA levels in U87MG tumor)
# Conditions: U87MG tumor cells implanted subcutaneously in nude mice, oral 25 or 50 mg/kg 1-2 times daily for one week
# Experimental: Test for In Vivo Target Inhibitory Activity
# After U87MG tumor cells were implanted subcutaneously in nude mice, a PRMT5 inhibitor was administered orally (25 or 50 mg/kg) 1-2 times daily for one week, and then the degree to which SDMA levels in the tumor decreased was measured.
# Reagents: Bradford's solution (Catalog No. 500-0006) was purchased from Bio-rad (USA). SDMA antibody (Catalog No. 13222s) was purchased from Cell Signaling Technology (USA). SmD3 antibody (Catalog No. ap12451a) was purchased from Abgent (USA), and secondary antibody (Catalog No. ab6721) and TMB substrate (Catalog No. ab210902) were purchased from Abcam (UK).
# Experimental procedure: The tumor tissues transplanted into the mice were excised, the cells were lysed, and then quantified with Bradford's solution. 5-10 μg of protein per sample was diluted with carbonate-bicarbonate buffer and dispensed into a 96-well plate and reacted at room temperature for 2 hours. After washing with phosphate buffered saline (PBST) containing 0.05% Tween-20 3 times, 200 μL of PBST containing 5% bovine serum albumin (BSA-PBST) was added and reacted at room temperature for 2 hours. After washing with PBST 3 times, the SDMA antibody and the SmD3 antibody were diluted in BSA-PBST, and 100 μL of each was dispensed onto the plate and reacted at 4° C. overnight. After washing with PBST 3 times the next day, 100 μL of the secondary antibody diluted in BSA-PBST was added and reacted at room temperature for 1 hour. After washing with PBST 3 times, 100 μL of TMB substrate was added and reacted at room temperature for 10-20 minutes, and 100 μL of 1N sulfuric acid solution was added to terminate the reaction. Then, the absorbance at 450 nm was measured to calculate the degree of SDMA inhibition by the compound. (+++: more than 70%, ++: more than 30% and 70% or less, +: 30% or less)
row,Compound,SDMA inhibition
1,"O=C1c2ccc(N3CCOCC3)cc2CCN1C[C@H](O)CN1CCc2ccccc2C1 [Example 4, 2-[(2R)-3-(3,4-dihydro-1H-isoquinolin-2-yl)-2-hydroxy-propyl]-6-morpholino-3,4-dihydroisoquinoline-1-one]",++ (++: more than 30% and 70% or less)
2,"C[C@@H]1CN(c2ccc3c(c2)CCN(C[C@H](O)CN2CCc4ccccc4C2)C3=O)C[C@H](C)O1 [Example 14, 2-[(2R)-3-(3,4-dihydro-1H-isoquinolin-2-yl)-2-hydroxy-propyl]-6-[(2R,6S)-2,6-dimethylmorpholin-4-yl]-3,4-dihydroisoquinolin-1-one]",+++ (+++: more than 70%)
